Values of other authors in patent US12329856B2, “Crosslinked hyaluronic acid composition with local anesthetics” (BIOPOLIMERI S.R.L., priority 2021, dated 2025).

Conditions: tabulated in the state of the art

## CCCNC(C)C(=O)Nc1c(C)csc1C(=O)OC (centres unmarked) [articaine]
  pKa^T (thermodynamic pKa): 7.6

## Cc1cccc(C)c1NC(=O)C1CCCCN1C (centres unmarked) [mepivacaine]
  pKa^T (thermodynamic pKa): 7.8
